Results on one molecule are retold here after patent US20190125785A1, “HYPOTHERMAL INHALATION GAS COMPOSITION” (MONATOMICS TECHNOLOGY, priority 2016, published 2019).

This experiment in a line: rectal body temperature of rats after 3 hours in an enclosure supplied with a 22% oxygen / 78% helium, xenon or argon mixture at different temperatures. Format: in vivo, rat. The note with it: comparison of FIGS. 1 and 2. The text has this:
The graph of FIG. 1, which represents the experimental body temperature data Tc collected on rats as a function of the inhalation temperature Ti of a helium-oxygen mixture (curve C1) or of a xenon-oxygen mixture (curve C2), makes it possible to determine the proportions of the gas composition to be complied with in order to obtain a hypothermal gas mixture, depending on the inhalation temperature. In a more detailed manner, curves C1 and C2 correspond to regression lines obtained based on said experimental data Pi, several examples of which have been plotted in FIG. 1.
The experimental data were obtained as follows: The rats were placed for 3 hours in a closed enclosure supplied with a continuous flow of a gas mixture containing 22% oxygen (O2) and 78% helium, xenon or argon (He, Xe or Ar). This gas mixture was administered at different temperatures. The flow of the gas mixture was 10 mL/min and made it possible to maintain the carbon dioxide (CO2) concentration below 0.03% and the humidity at around 60% to 70%. […] At the end of the 3 hours of exposure, the rectal body temperature of the rats was measured for each administration temperature.
The inhalation temperature Ti can be between 16° C. and 27° C., for example.

Structures are written as SMILES.

As to `[Ar]` [Argon (Ar), Argon], the “hypothermal properties (slope of curve C3 compared with curve C2)” value is listed as “lower hyperthermal properties than xenon”.
